Laboratory results reported in US20230158071A1, “TUMOR COMBINED IMMUNOTHERAPY” (CRAGE medical Co., Limited, priority 2018, published 2023).

Key:
E0771ERVIII cells = experiment: In vitro proliferation of E0771ERVIII cells (veliparib, JQ1); type: cell-based, mouse
Source text: (§1) Another small molecule drug JQ1 is a BET bromodomain inhibitor acting on BRD4, it may induce tumor cell apoptosis (i.e., slow proliferation) by targeted inhibition of BRD4, thereby achieving anti-tumor effects.

mouse CAR-T cells = experiment: In vitro proliferation of mouse CAR-T cells (veliparib, JQ1); type: cell-based
Source text: as §1

mouse T cells = experiment: In vitro proliferation of mouse T cells (JQ1); type: cell-based; conditions: JQ1, dose-dependent manner
Source text: as §1

CART cells = experiment: LDH cell killing experiment with veliparib; type: cell-based; conditions: 100 μM
Source text: as §1

Cc1sc2c(c1C)C(c1ccc(Cl)cc1)=N[C@@H](CC(=O)OC(C)(C)C)c1nnc(C)n1-2 [JQ1]
proliferation of E0771ERVIII cells (E0771ERVIII cells; different concentrations of JQ1 for 48 h): could not inhibit
proliferation of CAR-T cells (mouse CAR-T cells; JQ1, dose-dependent manner): significantly inhibit
proliferation of mouse T cells (mouse T cells): significantly inhibit

C[C@]1(c2nc3c(C(N)=O)cccc3[nH]2)CCCN1 [veliparib]
concentration level that may affect the proliferation level of E0771ERVIII cells (E0771ERVIII cells; in vitro): ≥ 10 µM
concentration that may significantly inhibit the proliferation of E0771ERVIII cells (E0771ERVIII cells; in vitro): ≥ 20 µM
proliferation of mouse CAR-T cells (mouse CAR-T cells; veliparib at 20 μM or more): significantly inhibit
killing effect of CART cells (CART cells): could not improve
